{"source": "patent US4413126A", "about": "“Preparation of isoquinoline derivatives useful as immune regulants” (Eli Lilly and Company, priority 1982, dated 1983)", "key": {"[1]": {"system": "antibody production", "assay": "Mouse Hemagglutinin assay, oral administration (pooled serum assay procedure)", "type": "in vivo, mouse (Swiss)", "conditions": "P.O., nine daily doses; for minimal effective dose: Mus musculus, po, read-out: MED (minimum effective dose: lowest drug dose producing 75 percent or greater antibody suppression)", "method": "Groups of five 20-gram, male, random-bred, Swiss mice received intravenous injections of 5×10^7 sheep red blood cells. The cells for these injections were prepared from lamb's blood (collected in Alsever's solution) by washing three times with 0.85 percent saline. Nine daily doses of each compound to be tested, solubilized in polyethylene glycol 400, were administered orally in 0.1 ml. doses, commencing three days prior to red blood cell injection. Several dose levels of each compound were employed, at 2-fold increments. A control group of mice, receiving a red blood cell injection and nine daily doses of vehicle instead of drug, was included. Six days after the antigen injections, the mice were bled by cardiac puncture and the blood from each 5-mouse group pooled. […] Following incubation of the trays for 3 hours at 37° C., the hemagglutination patterns were graded."}, "[2]": {"system": "GVH reaction", "assay": "Graft-Versus-Host (GVH) Reaction", "type": "in vivo, mouse (C57BL×C3H)", "conditions": "for minimal effective dose: 312 h, read-out: Endpoint Dose (p < 0.05): lowest drug dose significantly lowering the spleen/body weight ratio", "method": "In this test, parental (C57BL) mouse spleen cells are injected into mice of an F1 hybrid strain (C57BL×C3H). […] As a consequence, the recipient's spleen becomes enlarged. Immunosuppression prevents or reduces this enlargement. Thus, spleen weights provide a measure of the GVH reaction and its reduction under immunosuppression.\nA modification of Simonsen's original procedure (Ann. N.Y. Acad. Sci., 73, 834 (1958) was employed. Large crops of spleen cells were obtained, without the generally employed manual teasing of spleens, by using Waring blendors with the cutting blades reversed. Two six-second blending periods buffeted the spleens (batches of 25 C57BL spleens in 25-ml. saline) sufficiently to free the cells from the connective tissue. The latter was removed by filtration through several thicknesses of cheesecloth. Cell suspensions prepared in this fashion were standardized, by means of Levy-Hausser chamber counts, to contain 6×10^8 nucleated cells per ml. Groups of ten 16-18 gram C57BL×C3H mice were injected intraperitoneally with 1 ml. of the donor cell suspension. The compounds were administered either orally (P.O.) or subcutaneously (S.C.) in a vehicle composed of saline containing 0.125% methylcellulose and 0.2% emulphor, commencing 3 days prior to cell injection and continuing daily for 13 days. Control animals received only cells and vehicle. The spleens were removed and weighed 10 days following cell injection, and the mg. spleen/gram body weight was calculated.\nThe compounds were administered at several dose levels and the mean spleen/body weight ratio at each dose level was compared to the control group which received only the vehicle. The p values (by Student's two-tail t Test) were determined as compared to the control group. […] The results obtained in the graft-versus-host reaction with the compounds of this invention and standard compounds are summarized in Table III."}, "[3]": {"system": "antibody titer", "assay": "Individual Serum Assay Procedure (mouse hemagglutinin, oral)", "type": "in vivo, mouse (Swiss)", "conditions": "read-out: Endpoint Dose (p < 0.05): lowest drug dose significantly lowering antibody titer"}, "[4]": {"system": "adjuvant-induced arthritis", "assay": "Adjuvant-induced Arthritis Test in Rats: uninjected paw volume inflammation", "type": "in vivo, rat (Lewis-Wistar)", "conditions": "days 11 through 25"}, "[5]": {"system": "adjuvant-induced arthritis", "assay": "Adjuvant-induced Arthritis Test in Rats: bone damage by X-ray", "type": "in vivo, rat (Lewis-Wistar)", "conditions": "X-ray day 25"}, "[6]": {"conditions": "po, P.O., daily for 13 days, mouse"}, "[7]": {"conditions": "P.O., ten daily doses, mouse, individual serum"}}, "note": "Structures can show the parent of a compound that is named as a salt. Where two headings read alike, the source gives them in different places."}
{"smiles": "C[n+]1c2ccc(Cl)cc2n2c(=O)c3cccc4cccc(c43)c21", "values": [{"measurement": "minimal effective dose", "setting": "[1]", "value": "> 100", "unit": "mg/kg"}]}
{"smiles": "C[n+]1c2ccc(C(F)(F)F)cc2n2c(=O)c3cccc4cccc(c43)c21", "values": [{"measurement": "minimal effective dose", "setting": "[1]", "value": 100, "unit": "mg/kg"}]}
{"smiles": "C[n+]1c2cc(Cl)ccc2n2c(=O)c3cccc4cccc(c43)c21", "values": [{"measurement": "minimal effective dose", "setting": "[1]", "value": 100, "unit": "mg/kg"}]}
{"smiles": "O=c1c2cccc3cccc(c32)c2nc3ccc(Br)cc3n12", "note": "[10-bromo, 10-bromo-7H-benzimidazo[2,1-a]benz[de]isoquinoline-7-one]", "values": [{"measurement": "minimal effective dose", "setting": "[1]", "value": 12.5, "unit": "mg/kg"}]}
{"smiles": "O=c1c2cccc3cccc(c32)c2nc3ccc(Cl)cc3n12", "note": "[10-chloro, 10-chloro-7H-benzimidazo[2,1-a]benz[de]isoquinoline-7-one]", "values": [{"measurement": "minimal effective dose", "setting": "[1]", "value": 3.1, "unit": "mg/kg"}]}
{"smiles": "O=c1c2cccc3cccc(c32)c2nc3ccc(C(F)(F)F)cc3n12", "note": "[10-trifluoromethyl, 10-(trifluoromethyl)-7H-benzimidazo[2,1-a]benz[de]isoquinoline-7-one]", "values": [{"measurement": "minimal effective dose", "setting": "[1]", "value": 25, "unit": "mg/kg"}, {"measurement": "minimal effective dose", "setting": "[2]; [6]", "value": "< 25", "unit": "mg/kg"}]}
{"smiles": "O=c1c2cccc3cccc(c32)c2nc3cc(Br)ccc3n12", "note": "[11-bromo, 11-bromo-7H-benzimidazo[2,1-a]benz[de]isoquinoline-7-one]", "values": [{"measurement": "minimal effective dose", "setting": "[1]", "value": 1.6, "unit": "mg/kg"}, {"measurement": "minimal effective dose", "setting": "[3]; [7]", "value": 12.5, "unit": "mg/kg"}, {"measurement": "minimal effective dose", "setting": "[2]; [6]", "value": "< 25", "unit": "mg/kg"}]}
{"smiles": "O=c1c2cccc3cccc(c32)c2nc3cc(Cl)ccc3n12", "note": "[11-chloro(p-toluenesulfonate salt)]", "values": [{"measurement": "MED (minimum effective dose: lowest drug dose producing 75 percent or greater antibody suppression)", "setting": "[1]", "value": 6.25, "unit": "mg./kg. × 9"}]}
{"smiles": "O=c1c2cccc3cccc(c32)c2nc3cc(Cl)ccc3n12", "note": "[11-chloro, 11-chloro-7H-benzimidazo[2,1-a]benz[de]isoquinoline-7-one]", "values": [{"measurement": "MED (minimum effective dose: lowest drug dose producing 75 percent or greater antibody suppression)", "setting": "[1]", "value": 0.4, "unit": "mg./kg. × 9"}, {"measurement": "minimal effective dose", "setting": "[3]; [7]", "value": 0.2, "unit": "mg/kg"}, {"measurement": "minimal effective dose", "setting": "[2]; Mus musculus, po", "value": 12.5, "unit": "mg/kg"}]}
{"smiles": "O=c1c2cccc3cccc(c32)c2nc3cc(F)ccc3n12", "note": "[11-fluoro, 11-fluoro-7H-benzimidazo[2,1-a]benz[de]isoquinoline-7-one]", "values": [{"measurement": "minimal effective dose", "setting": "[1]", "value": 12.5, "unit": "mg/kg"}]}
{"smiles": "O=c1c2cccc3cccc(c32)c2nc3cc(C(F)(F)F)ccc3n12", "note": "[11-trifluoromethyl(p-toluenesulfonate salt)]", "values": [{"measurement": "MED (minimum effective dose: lowest drug dose producing 75 percent or greater antibody suppression)", "setting": "[1]", "value": 3.1, "unit": "mg./kg. × 9"}]}
{"smiles": "O=c1c2cccc3cccc(c32)c2nc3cc(C(F)(F)F)ccc3n12", "note": "[11-trifluoromethyl, 11-(trifluoromethyl)-7H-benzimidazo[2,1-a]benz[de]isoquinoline-7-one]", "values": [{"measurement": "MED (minimum effective dose: lowest drug dose producing 75 percent or greater antibody suppression)", "setting": "[1]", "value": 0.2, "unit": "mg./kg. × 9"}, {"measurement": "minimal effective dose", "setting": "[3]; [7]", "value": 0.4, "unit": "mg/kg"}, {"measurement": "minimal effective dose", "setting": "[2]; Mus musculus, po", "value": 12.5, "unit": "mg/kg"}, {"measurement": "minimal effective dose", "setting": "[2]; sc, S.C., daily for 13 days, mouse", "value": "< 0.1", "unit": "mg/kg"}, {"measurement": "% Inhibition of uninjected paw volume inflammation (AUC)", "setting": "[4]; Test 1, 100 mg./kg. P.O. × 24", "value": 85.8, "unit": "%"}, {"measurement": "% Inhibition of uninjected paw volume inflammation (AUC)", "setting": "[4]; Test 2, 50 mg./kg. P.O. × 24", "value": 55.9, "unit": "%"}, {"measurement": "inhibition of bone damage, injected paws", "setting": "[5]; Test 1 (100 mg./kg. P.O. × 24)", "value": 68, "unit": "%"}, {"measurement": "inhibition of bone damage, uninjected paws, compared to TB control group", "setting": "[5]; Test 1 (100 mg./kg. P.O. × 24)", "value": 94, "unit": "%"}, {"measurement": "inhibition of bone damage, injected paws", "setting": "[5]; Test 2 (50 mg./kg. P.O. × 24)", "value": 66, "unit": "%"}, {"measurement": "inhibition of bone damage, uninjected paws, compared to TB control group", "setting": "[5]; Test 2 (50 mg./kg. P.O. × 24)", "value": 88, "unit": "%"}]}
{"smiles": "C[n+]1c2cc(C(F)(F)F)ccc2n2c(=O)c3cccc4cccc(c43)c21", "note": "[13-methyl-7-oxo-11-(trifluoromethyl)-7H-benzimidazo[2,1-a]benz[de]isoquinolinium 4-methylbenzenesulfonate]", "values": [{"measurement": "minimal effective dose", "setting": "[1]", "value": 1.6, "unit": "mg/kg"}, {"measurement": "minimal effective dose", "setting": "[3]; Mus musculus", "value": 12.5, "unit": "mg/kg"}, {"measurement": "minimal effective dose", "setting": "[2]; Mus musculus, po", "value": 12.5, "unit": "mg/kg"}]}
{"smiles": "Cn1cnc([N+](=O)[O-])c1Sc1ncnc2nc[nH]c12", "note": "[Azathioprine, reference compound]", "values": [{"measurement": "minimal effective dose", "setting": "[1]", "value": 100, "unit": "mg/kg"}, {"measurement": "minimal effective dose", "setting": "[3]; [7]", "value": 100, "unit": "mg/kg"}, {"measurement": "Endpoint Dose (p < 0.05): lowest drug dose significantly lowering the spleen/body weight ratio", "setting": "[2]; P.O., daily for 13 days, mouse", "value": 12.5, "unit": "mg./kg. × 13"}]}
{"smiles": "C[C@]12CCC(=O)C=C1CC[C@@H]1[C@@H]2C(=O)C[C@@]2(C)[C@H]1CC[C@]2(O)C(=O)CO", "note": "[Cortisone, reference compound]", "values": [{"measurement": "minimal effective dose", "setting": "[2]; [6]", "value": 3.1, "unit": "mg/kg"}]}
{"smiles": "O=P1(N(CCCl)CCCl)NCCCO1", "note": "(stereo not shown) [Cyclophosphamide, reference compound]", "values": [{"measurement": "minimal effective dose", "setting": "[2]; [6]", "value": 12.5, "unit": "mg/kg"}]}
{"smiles": "CC(C(=O)O)c1cccc(Oc2ccccc2)c1", "note": "(stereo not shown) [Fenoprofen, reference compound]", "values": [{"measurement": "% Inhibition of uninjected paw volume inflammation (AUC)", "setting": "[4]; Test 1, 40 mg./kg. P.O. × 24", "value": 44.0, "unit": "%"}, {"measurement": "% Inhibition of uninjected paw volume inflammation (AUC)", "setting": "[4]; Test 2, 40 mg./kg. P.O. × 24", "value": 60.7, "unit": "%"}]}
{"smiles": "CN(Cc1cnc2nc(N)nc(N)c2n1)c1ccc(C(=O)N[C@@H](CCC(=O)O)C(=O)O)cc1", "note": "[Methotrexate, reference compound]", "values": [{"measurement": "minimal effective dose", "setting": "[2]; Mus musculus, po", "value": 0.2, "unit": "mg/kg"}]}
